Experimental findings from US20240124450A1, “Novel SIK Inhibitors” (Pfizer Inc., priority 2022, published 2024) are described below.

One experiment addresses SIK3 (Homo sapiens (Human), UniProt Q9Y2K2). Briefly: Pan SIK MS IC50 enzyme assay (SIK3). The class given is biochemical. The following applies: 1 mM ATP, substrate peptide AQT0508, LCMS/MS detection.
The next experiment addresses SIK1 (Homo sapiens (Human), UniProt P57059). Briefly: Pan SIK MS IC50 enzyme assay (SIK1). The class given is biochemical. To be noted: 1 mM ATP, substrate peptide AQT0868, LCMS/MS detection.
Experiment [1] has as its system TNFα release from human monocyte derived macrophages stimulated with LPS. Briefly: SIK macrophage cytokine assay, inhibition of TNFα release. The format is cell-based. To be noted: Macrophage, 1 ng/mL LPS, 4 hours, HTRF, read-out: TNFa IC50.
Experiment [2] has as its system IL10 release from human monocyte derived macrophages stimulated with LPS. Nature of the experiment: SIK macrophage cytokine assay, increase of IL10 release. The format is cell-based. The following applies: Macrophage, 1 ng/mL LPS, 4 hours, HTRF. In general terms: TR-FRET usually uses a lanthanide donor and a delayed reading to cut background.
The next experiment has as its target SIK2 (Homo sapiens (Human), UniProt Q9H0K1). Briefly: Pan SIK MS IC50 enzyme assay (SIK2). The class given is biochemical. The following applies: 1 mM ATP, substrate peptide AQT0252, LCMS/MS detection.

Chain of SIK2 (Q9H0K1 whole entry, species assumed): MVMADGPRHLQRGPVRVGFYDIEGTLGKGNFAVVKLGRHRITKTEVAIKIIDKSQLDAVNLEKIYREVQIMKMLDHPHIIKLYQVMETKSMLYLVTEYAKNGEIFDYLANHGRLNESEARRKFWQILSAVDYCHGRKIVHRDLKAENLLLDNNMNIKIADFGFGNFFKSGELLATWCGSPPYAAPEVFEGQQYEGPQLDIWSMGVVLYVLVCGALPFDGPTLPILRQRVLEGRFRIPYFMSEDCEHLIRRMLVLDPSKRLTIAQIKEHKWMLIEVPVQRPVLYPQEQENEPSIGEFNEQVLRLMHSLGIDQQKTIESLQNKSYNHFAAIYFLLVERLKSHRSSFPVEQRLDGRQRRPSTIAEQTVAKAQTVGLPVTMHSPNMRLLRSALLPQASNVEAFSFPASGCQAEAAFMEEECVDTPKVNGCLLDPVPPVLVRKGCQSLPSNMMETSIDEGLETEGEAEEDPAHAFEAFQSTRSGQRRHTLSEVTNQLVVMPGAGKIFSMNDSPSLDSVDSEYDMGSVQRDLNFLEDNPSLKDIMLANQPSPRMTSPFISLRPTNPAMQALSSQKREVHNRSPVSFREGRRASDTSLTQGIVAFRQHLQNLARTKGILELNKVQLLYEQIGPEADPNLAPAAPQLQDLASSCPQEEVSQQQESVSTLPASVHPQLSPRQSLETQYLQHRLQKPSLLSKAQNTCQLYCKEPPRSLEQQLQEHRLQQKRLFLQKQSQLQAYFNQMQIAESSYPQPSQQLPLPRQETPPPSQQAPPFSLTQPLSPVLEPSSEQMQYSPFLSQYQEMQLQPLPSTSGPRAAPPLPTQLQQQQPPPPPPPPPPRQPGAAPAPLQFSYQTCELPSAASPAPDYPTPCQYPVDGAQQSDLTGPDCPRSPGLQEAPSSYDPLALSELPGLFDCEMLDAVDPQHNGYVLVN
Chain of SIK3 (Q9Y2K2 whole entry, species assumed): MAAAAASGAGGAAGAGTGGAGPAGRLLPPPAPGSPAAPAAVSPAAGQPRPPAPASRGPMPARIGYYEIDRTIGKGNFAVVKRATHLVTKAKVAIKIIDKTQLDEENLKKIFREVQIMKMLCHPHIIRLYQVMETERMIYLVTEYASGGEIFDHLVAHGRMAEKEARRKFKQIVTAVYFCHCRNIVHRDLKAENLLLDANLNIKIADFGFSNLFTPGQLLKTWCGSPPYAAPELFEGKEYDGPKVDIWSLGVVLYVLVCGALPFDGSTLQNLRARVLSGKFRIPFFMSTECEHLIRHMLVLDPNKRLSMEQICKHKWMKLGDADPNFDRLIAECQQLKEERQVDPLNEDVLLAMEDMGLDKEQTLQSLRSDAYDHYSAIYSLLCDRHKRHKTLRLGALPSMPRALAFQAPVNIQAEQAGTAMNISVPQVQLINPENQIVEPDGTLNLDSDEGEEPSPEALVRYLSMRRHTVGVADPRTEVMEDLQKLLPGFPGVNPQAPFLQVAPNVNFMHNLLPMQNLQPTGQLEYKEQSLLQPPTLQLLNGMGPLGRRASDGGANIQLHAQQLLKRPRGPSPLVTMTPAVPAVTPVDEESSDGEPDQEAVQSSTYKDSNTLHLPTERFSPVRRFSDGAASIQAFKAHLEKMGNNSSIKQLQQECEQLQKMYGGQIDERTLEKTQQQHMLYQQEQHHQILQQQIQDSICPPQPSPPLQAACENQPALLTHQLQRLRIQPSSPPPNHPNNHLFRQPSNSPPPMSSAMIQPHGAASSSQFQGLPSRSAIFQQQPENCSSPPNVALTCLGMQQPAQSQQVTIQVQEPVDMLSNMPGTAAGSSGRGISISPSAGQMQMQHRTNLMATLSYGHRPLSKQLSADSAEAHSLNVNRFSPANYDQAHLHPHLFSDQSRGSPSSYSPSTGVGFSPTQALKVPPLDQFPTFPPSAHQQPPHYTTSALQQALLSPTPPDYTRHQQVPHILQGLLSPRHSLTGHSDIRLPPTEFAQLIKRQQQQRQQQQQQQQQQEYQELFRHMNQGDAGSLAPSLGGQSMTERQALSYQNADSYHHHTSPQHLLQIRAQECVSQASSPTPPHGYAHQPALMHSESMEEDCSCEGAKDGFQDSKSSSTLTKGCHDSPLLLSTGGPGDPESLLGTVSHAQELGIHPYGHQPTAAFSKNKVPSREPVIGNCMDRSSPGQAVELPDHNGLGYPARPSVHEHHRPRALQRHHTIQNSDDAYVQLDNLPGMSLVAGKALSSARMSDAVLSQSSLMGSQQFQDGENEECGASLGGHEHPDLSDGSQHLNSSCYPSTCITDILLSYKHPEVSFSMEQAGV
Chain of SIK1 (P57059 whole entry, species assumed): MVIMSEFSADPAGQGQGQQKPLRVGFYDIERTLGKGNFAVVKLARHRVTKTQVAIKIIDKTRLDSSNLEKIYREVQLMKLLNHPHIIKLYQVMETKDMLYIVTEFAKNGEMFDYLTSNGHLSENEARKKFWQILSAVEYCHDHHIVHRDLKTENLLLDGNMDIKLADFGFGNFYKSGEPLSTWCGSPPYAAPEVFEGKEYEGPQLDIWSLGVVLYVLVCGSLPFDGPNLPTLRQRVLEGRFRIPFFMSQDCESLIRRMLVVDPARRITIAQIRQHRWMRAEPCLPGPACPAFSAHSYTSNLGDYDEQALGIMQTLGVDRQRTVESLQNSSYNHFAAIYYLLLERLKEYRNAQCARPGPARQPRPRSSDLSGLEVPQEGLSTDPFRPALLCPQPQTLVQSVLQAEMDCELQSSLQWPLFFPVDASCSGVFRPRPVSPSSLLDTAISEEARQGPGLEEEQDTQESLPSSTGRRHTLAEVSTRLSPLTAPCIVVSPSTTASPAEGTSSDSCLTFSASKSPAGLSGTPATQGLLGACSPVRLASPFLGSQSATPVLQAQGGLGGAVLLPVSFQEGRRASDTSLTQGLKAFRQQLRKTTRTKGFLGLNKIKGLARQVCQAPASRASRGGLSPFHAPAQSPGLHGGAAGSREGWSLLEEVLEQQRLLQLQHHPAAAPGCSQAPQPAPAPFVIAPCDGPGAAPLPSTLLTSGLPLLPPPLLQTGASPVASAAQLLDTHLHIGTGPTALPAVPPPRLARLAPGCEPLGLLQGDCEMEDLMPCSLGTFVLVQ

As a reminder, the IC50 is the concentration needed to halve the response being measured. What is called EC50 is the concentration giving half of the maximal effect. A lower EC50 goes with a more potent agent. With `COc1cc(C#N)n2c(-c3cc(OC)c(C#N)c(OCC4(N)CCCCC4)c3)cnc2c1` [Example 52, 3-(3-((1-Aminocyclohexyl)methoxy)-4-cyano-5-methoxyphenyl)-7-methoxyimidazo[1,2-a]pyridine-5-carbonitrile], the IC50 on SIK3 stood at 2.1 nM; on SIK1, 5.1 nM; in experiment [1] it was 12 nM; against SIK2, 1.1 nM. This compound came in with a 50% effective concentration (EC50) in experiment [2] of 178 nM.

As to `CNc1ccc2ncc(-c3cc(OCC4(N)CCCC4)c(C#N)c(SC)c3)n2c1C#N` [Example 53, 3-(3-((1-Aminocyclopentyl)methoxy)-4-cyano-5-(methylthio)phenyl)-6-(methylamino)imidazo[1,2-a]pyridine-5-carbonitrile], the IC50 against SIK3 came out at 1.5 nM; against SIK1 it was 0.1 nM; in experiment [1] it was 0.5 nM; on SIK2, 0.4 nM. Moreover, in experiment [2], the EC50 was determined as 4 nM.
